DC50 and Emax data for six molecules are collected here from ChEMBL document CHEMBL5532723, “Advances in Targeted Therapies for Inflammatory Diseases and Cancer: Exploring Cellular Mechanisms and Therapeutic Strategies” (ACS Med Chem Lett, 2024).

Molecules are shown by their SMILES.

The target in test [1] is T1, Protein cereblon/Interleukin-1 receptor-associated kinase 4 (Homo sapiens, UniProt Q9NWZ3+Q96SW2). The test can be described thus: PROTAC activity at CRBN/IRAK4 in human KARPAS-299 cells assessed as induction of IRAK4 degradation incubated for 24 hrs by TR-FRET assay. It counts as cell-based.
Target sequence in this assay (Q9NWZ3 whole entry): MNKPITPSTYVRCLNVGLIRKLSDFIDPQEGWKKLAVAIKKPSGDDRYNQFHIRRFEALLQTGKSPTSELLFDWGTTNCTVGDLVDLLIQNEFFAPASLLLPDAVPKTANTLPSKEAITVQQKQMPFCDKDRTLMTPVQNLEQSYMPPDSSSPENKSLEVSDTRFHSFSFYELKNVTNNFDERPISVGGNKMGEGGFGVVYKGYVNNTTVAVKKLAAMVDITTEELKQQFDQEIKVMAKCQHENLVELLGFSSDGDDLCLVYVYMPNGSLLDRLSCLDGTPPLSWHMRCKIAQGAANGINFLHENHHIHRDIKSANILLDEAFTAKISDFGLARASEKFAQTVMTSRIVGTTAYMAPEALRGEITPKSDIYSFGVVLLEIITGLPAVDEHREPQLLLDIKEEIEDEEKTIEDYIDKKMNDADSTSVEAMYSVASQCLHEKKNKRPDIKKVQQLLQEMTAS
Target sequence in this assay (Q96SW2 whole entry): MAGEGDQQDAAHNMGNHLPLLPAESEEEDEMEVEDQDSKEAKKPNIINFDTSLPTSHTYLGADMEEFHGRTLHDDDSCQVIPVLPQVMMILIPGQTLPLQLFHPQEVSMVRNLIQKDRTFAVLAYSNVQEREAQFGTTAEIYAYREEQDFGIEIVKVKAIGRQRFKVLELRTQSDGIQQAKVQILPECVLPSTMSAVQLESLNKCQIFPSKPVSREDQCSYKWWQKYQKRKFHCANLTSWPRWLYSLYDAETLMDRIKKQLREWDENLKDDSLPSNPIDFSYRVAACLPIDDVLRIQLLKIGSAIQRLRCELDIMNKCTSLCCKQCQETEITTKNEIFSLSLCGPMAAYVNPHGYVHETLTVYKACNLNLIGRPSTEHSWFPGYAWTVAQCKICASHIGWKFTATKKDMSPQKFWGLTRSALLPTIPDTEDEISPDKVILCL
The target of test [2] is T1, Protein cereblon/Interleukin-1 receptor-associated kinase 4. The experiment in a line: PROTAC activity at CRBN/IRAK4 in human KARPAS-299 cells assessed as induction of IRAK4 degradation incubated for 24 hrs by TR-FRET assay relative to control. It counts as cell-based. Background: TR-FRET usually uses a lanthanide donor and a delayed reading to cut background.
Target sequence in this assay (Q96SW2 whole entry, looked up): as the sequence (Q96SW2 whole entry) above
Target sequence in this assay (Q9NWZ3 whole entry, looked up): as the sequence (Q9NWZ3 whole entry) above

For `CC(C)(O)c1cc2nn(C34CC(N5CCN(CCc6cc(F)c([C@H]7CCC(=O)NC7=O)c(F)c6)CC5)(C3)C4)cc2cc1NC(=O)c1ccc2cc(C#N)cnn12`, in test [1], the DC50 (usually the concentration at which degradation of the target reaches its halfway point) was found to be 5.2 nM. For the same molecule, the Emax (in general, the maximal effect, on the per cent scale that the assay sets) in test [2] came to 94%.

`CC(C)(O)c1cc2nn([C@H]3CC[C@H](N4CCN(CCc5cc(F)c([C@H]6CCC(=O)NC6=O)c(F)c5)CC4)CC3)cc2cc1NC(=O)c1ccc2cc(C#N)cnn12`: the DC50 in test [1] turned out to be 3.7 nM. Also, in test [2], the Emax is 99%.

`CC(C)(O)c1cc2nn([C@H]3C[C@H](N4CCN(C(=O)C5CN(c6cc(F)c([C@H]7CCC(=O)NC7=O)c(F)c6)C5)CC4)C3)cc2cc1NC(=O)c1ccc2cc(C#N)cnn12`: the DC50 in test [1] came to 11 nM. Besides, the Emax in test [2] turned out to be 99%.

`CC(C)(O)c1cc2nn(C34CCC(N5CCN(CCc6cc(F)c([C@H]7CCC(=O)NC7=O)c(F)c6)CC5)(CC3)CC4)cc2cc1NC(=O)c1ccc2cc(C#N)cnn12`: the DC50 in test [1] turned out to be 3.9 nM. Besides, the Emax in test [2] is 101%.

As for `CC(C)(O)c1cc2nn([C@H]3CC[C@H](N4CCN(CCNc5cc(F)c(C6CCC(=O)NC6=O)c(F)c5)CC4)CC3)cc2cc1NC(=O)c1ccc2cc(C#N)cnn12` (some centres not stated), the DC50 in test [1] was 7.1 nM. In addition, the Emax in test [2] stood at 100%.

On to `CC(C)(O)c1cc2nn([C@H]3CC[C@H](N4CCN(C5CN(c6cc(F)c([C@H]7CCC(=O)NC7=O)c(F)c6)C5)CC4)CC3)cc2cc1NC(=O)c1ccc2cc(C#N)cnn12`, for which the DC50 in test [1] was 8.3 nM. In addition, the Emax in test [2] is 100%.
